Columns and labels:
[1] = tested on: Streptococcus pyogenes; assay: MIC, microtiter dilution technique; format: cell-based; details: Mueller-Hinton broth, 37° C., 16-24 hours
Procedure: (§1) Tyrissamycin was evaluated in vitro to detemine the minimal inhibitory concentrations (MIC) against seven gram-positive bacteria using the microtiter dilution technique. This method is described by T. B. Conrath, “Handbook of Microtiter Procedures,” Dynatech Corp., Cambridge, Mass., USA (1972); and T. L. Gavan et al “Microdilution Test Procedures,” in Manual of Clinical Microbiology, E. H. Lennette, Ed., American Soc. for Microbiol., Washington, D.C., USA (1980). These tests are performed in accordance with procedures established by the National Committee on Clinical Laboratory Standards (NCCLS). The test procedure is as follows: Each well of a sterile 96-well microdilution tray is filled under aseptic conditions with 0.1 ml of Mueller-Hinton broth. A 0.05-ml sample of the test compound solution is added to a well in the first row of the tray. A microdilutor apparatus is used to simultaneously mix the contents of these wells and to transfer aliquots to each succeeding row of cells to obtain a range of serially diluted solutions. The last row of wells is untreated and serves as a control. Each well containing broth and test compound is inoculated with about ten microliters of inoculum of a given test microorganism. One well in the last row of wells (which is free of test compound) is not inoculated and is used as a sterility control. The trays are sealed and incubated at 37° C. for 16-24 hours.

[2] = tested on: Staphylococcus aureus; assay: MIC, microtiter dilution technique; format: cell-based; details: Mueller-Hinton broth, 37° C., 16-24 hours
Procedure: as §1

[3] = tested on: Staphylococcus epidermidis; assay: MIC, microtiter dilution technique; format: cell-based; details: Mueller-Hinton broth, 37° C., 16-24 hours
Procedure: as §1

[4] = tested on: Staphylococcus haemolyticus; assay: MIC, microtiter dilution technique; format: cell-based; details: Mueller-Hinton broth, 37° C., 16-24 hours
Procedure: as §1

[5] = tested on: Streptococcus pneumoniae; assay: MIC, microtiter dilution technique; format: cell-based; details: Mueller-Hinton broth, 37° C., 16-24 hours
Procedure: as §1

[6] = tested on: Enterococcus faecium; assay: MIC, microtiter dilution technique; format: cell-based; details: Mueller-Hinton broth, 37° C., 16-24 hours
Procedure: as §1

[7] = tested on: Enterococcus faecalis; assay: MIC, microtiter dilution technique; format: cell-based; details: Mueller-Hinton broth, 37° C., 16-24 hours
Procedure: as §1

[8] = Solubility; format: physicochemical
Excerpt: A purified sample of tyrissamycin was isolated as a white amorphous powder. […] FIG. 3 (CD3OD) • ^13C-NMR: See FIG. 4 (CD3OD)

[9] = tested on: Staphylococcus aureus strain SA1; assay: Well-agar diffusion biological assay; format: cell-based; details: sample 5 mg/ml; S. aureus SA1; 7 mm agar wells; fractions of final purification
Procedure: Assays for detection and evaluation of the antibacterial activity of tyrissamycin employ various strains of Staphylococcus aureus. The primary biological assay system consists of S. aureus strain SA1.
SA1 is grown at 37° C. overnight in Antibiotic Assay Broth (BBL, Cockeysville, Md.). The culture is centrifuged at 4000 rpm for 10 minutes and the medium is decanted. Cells are resuspended in 0.9% saline. The culture is adjusted to 25% transmission (600 nm wavelength) using a Coleman Junior Spectrophotometer. This 25% working cell suspension is stored at 4° C. for use as the assay inoculum.
All biological assays employ agar diffusion techniques. Assay agar is Seed Agar (BBL) supplemented after autoclaving with 4% of phosphate-nitrate buffer, pH 7.0, and 0.3% of a 2% solution of triphenyltetrazolium chloride. For well-agar diffusion assays, assay agar is seeded with 1% of the working cell suspension of SA1. The seeded agar is poured into Petri dishes or bioassay trays and allowed to harden. Wells (7 mm diameter) are cut in the agar, and 40 μl sample aliquots are added to the wells. (For some assays, 3 μl of sample are spotted directly on the surface of the agar). Plates are incubated at 37° C. for 18-24 hours, and zones of inhibition (if any) are measured. Inhibition zone sizes correlated with the activity of tyrissamycin in various samples.

tyrissamycin
Minimal Inhibitory Concentration [1]: 4 µg/mL | Minimal Inhibitory Concentration [2]: 32 µg/mL | Minimal Inhibitory Concentration [3]: 32 µg/mL | Minimal Inhibitory Concentration [4]: 32 µg/mL | Minimal Inhibitory Concentration [5]: 4 µg/mL | Minimal Inhibitory Concentration [6]: 64 µg/mL | Minimal Inhibitory Concentration [7]: 32 µg/mL | Solubility ([8]; in chloroform): Soluble | Solubility ([8]; in dimethylsulfoxide (DMSO)): Soluble | Solubility ([8]; in methanol): Soluble | Solubility ([8]; in water): practically insoluble | Inhibition Zone [9]: 14.0 mm

— US7256024B2, “Tyrissamycin antibiotic” (Bristol-Myers Squibb Company, priority 1998, dated 2007)
